Test results from article PMC10779116, “Madurastatins with Imidazolidinone Rings: Natural Products or Side-Reaction Products from Extraction Solvents?” (International Journal of Molecular Sciences, 2023).
pIC50: −log10 of the molar value.

Key:
U2OS cells = experiment: Host cell cytotoxicity (cell ratio) in the T. cruzi assay; assay type: cell-based, Human; details: number of U2OS host cells in T. cruzi assay, 3 days
Description: (§1) Human osteosarcoma cell line U2OS (ATCC HTB-96) and rhesus monkey kidney epithelial cell LLM-MK2 (ATCC CCL-7) were purchased from the American Type Culture Collection (ATCC, Manassas, VA, USA). T. cruzi Y strain was maintained as tissue culture trypomastigotes (TCT) by infection to LLC-MK2 cell line. The U2OS human cell was cultivated in DMEM-high-glucose media supplemented with 10% heat-inactivated fetal bovine serum (FBS, Thermo Fisher Scientific, Waltham, MA, USA). To visualize amastigote replication, U2OS cells were seeded in a 384-well plate (4 × 10^3 cells/well) and infected with 5 × 10^4 TCT parasites in DMEM-low-glucose media supplemented with 2% heat-inactivated FBS as previously described. The reference drug 400 μM of benznidazole (positive control), 0.5% DMSO (negative control), and the tested samples were treated on the day of assay and then incubated for 3 days at 37 °C, 5% CO2. After incubation was completed, the cells and parasites were fixed with 4% paraformaldehyde (PFA), and the DNA was stained with 5 μM DRAQ5 (Biostatus, Shepshed, Leicestershire, UK) followed by image acquisition using an automated confocal microscope (Operetta CLS, PerkinElmer, Waltham, MA, USA) with a […] laser at 20× objective.
(§2) The acquired images were analyzed with Columbus software (v2.3) (PerkinElmer) to quantify cell numbers, parasites numbers, and infection ratio. Data were normalized by positive and negative controls. The activity of the tested samples was determined in terms of IC50 and CC50 calculated with XLfit software (v5) (IDBS, Boston, MA, USA). The quality of the assay data was assessed with Z’ factor, assay windows, and CV [37].

T. cruzi Y strain = experiment: Antiparasitic activity on T. cruzi: image-based intracellular amastigote assay in infected U2OS cells; assay type: cell-based, Trypanosoma cruzi; details: T. cruzi in U2OS host cells, 3 days, normalized by DMSO and benznidazole controls; for Inhibition norm. inf. ratio IC50: number of infected host cells; for pIC50: Trypanosoma cruzi, 72 h, number of parasites in host cell cytoplasm, read-out: Inhibition norm. para. num. IC50
Protocol: as §1, with “All compounds isolated were tested against Trypanosoma cruzi and Leishmania donovani, using the liquid microdilution method. Madurastatins were not active against L. donovani at the highest concentration tested, showing IC50 values higher than 50 µM. […] Human” for “Human”, “objective. The acquired images were analyzed with Columbus software (v2.3) (PerkinElmer) to quantify cell numbers, parasites numbers, and infection ratio. Data were normalized by positive and negative controls. The activity of the tested samples was determined in terms of IC50 and CC50 calculated with XLfit software (v5) (IDBS, Boston, MA, USA). The quality of the assay data was assessed with Z’ factor, assay windows, and CV [37].” for “objective.”

THP-1 cells = experiment: Host cell cytotoxicity (cell ratio) in the L. donovani assay; assay type: cell-based, Human; details: number of THP-1 host cells in L. donovani assay, 3 days
Protocol: (§3) Human monocyte cell line THP-1 (ATCC TIB-202) was purchased from the American Type Culture Collection (ATCC). The assay for activity against L. donovani was performed as previously described. L. donovani MHOM/ET/67/HU3 was cultivated as promastigotes at 28 °C in M199 (Sigma-Aldrich, St. Louis, MO, USA) with 40 mM HEPES, 0.1 mM adenine, 0.0001% biotin, and 4.62 mM NaHCO3, supplemented with 10% heat-inactivated FBS and incubated 6 days before infection to enrich the proportion of metacyclic promastigotes. THP-1 was cultivated in RPMI medium (Thermo Fisher Scientific) supplemented with 10% heat-inactivated FBS and differentiated with 50 ng/mL of phorbol 12-myristate 13-acetate (PMA, Sigma-Aldrich) before infection. Purified L. donovani parasites were seeded with 1:20 infection ratio in 384-well plates and incubated for 24 h, then followed by the treatment of 4 μM amphotericin B (Sigma-Aldrich) as positive control, 0.5% DMSO as negative control, and tested samples. After additional incubation for 3 days at 37 °C, 5% CO2, the cells and parasites were fixed with 4% PFA and stained with 5 μM DRAQ5. Fluorescent images were acquired from each well using an automated confocal microscope (Operetta CLS) with a […] laser at 20× objective.
as §2

[1] = tested on: L. donovani MHOM/ET/67/HU3; experiment: Antiparasitic activity on L. donovani: image-based intracellular assay in infected differentiated THP-1 cells; assay type: cell-based, Leishmania donovani; details: L. donovani in PMA-differentiated THP-1 host cells, 3 days, normalized by controls; for Inhibition norm. inf. ratio IC50: number of infected host cells; for pIC50: Leishmania donovani, 72 h, number of parasites in host cell cytoplasm, read-out: Inhibition norm. para. num. IC50
Protocol: All compounds isolated were tested against Trypanosoma cruzi and Leishmania donovani, using the liquid microdilution method. Madurastatins were not active against L. donovani at the highest concentration tested, showing IC50 values higher than 50 µM.
as §3, §2

| Compound | Cell ratio (%) CC50 (U2OS cells) [µM] | Inhibition norm. inf. ratio IC50 (T. cruzi Y strain) [µM] | pIC50 (T. cruzi Y strain) | Cell ratio (%) CC50 (THP-1 cells) [µM] | Inhibition norm. inf. ratio IC50 [1] [µM] | pIC50 [1] |
| --- | --- | --- | --- | --- | --- | --- |
| C[C@@H]1N(C)[C@@H](CCCN(O)C(=O)CCNC(=O)CNC(=O)[C@H]2COC(c3ccccc3O)=N2)C(=O)N1[C@H]1CCCN(O)C1=O [33-epi D1 (3), 33-epi-madurastatin D1] | >50 | >50 | 4.34 | >50 | >50 | < 4.30 |
| CNC(CCCN(O)C(=O)CCNC(=O)CNC(=O)C1COC(c2ccccc2O)=N1)C(=O)NC1CCCN(O)C1=O (stereo not drawn) [C1 (1), madurastatin C1] | >50 | >50 | 4.51 | >50 | >50 | < 4.30 |
| CC1N(C)C(CCCN(O)C(=O)CCNC(=O)CNC(=O)C2COC(c3ccccc3O)=N2)C(=O)N1C1CCCN(O)C1=O (stereo not drawn) [D1 (4), madurastatin D1] | 46.77 | >50 | 4.56 | >50 | >50 | < 4.30 |
| CN1C(CCCN(O)C(=O)CCNC(=O)CNC(=O)C2COC(c3ccccc3O)=N2)C(=O)N(C2CCCN(O)C2=O)C1(C)C (stereo not drawn) [D2 (5), madurastatin D2] | 24.74 | >50 | 5.05 | >50 | >50 | < 4.30 |
| CN1[C@@H](CCCN(O)C(=O)CCNC(=O)CNC(=O)[C@@H](CO)NC(=O)c2ccccc2O)C(=O)N([C@H]2CCCN(O)C2=O)C1(C)C [H2 (2), madurastatin H2] | >50 | >50 | < 4.30 | >50 | >50 | < 4.30 |
